According to patent publication US20140045805A1, “Fragrance Compositions and Other Compositions Which Contain Naturally Occurring Substances Found in Corals” (priority 2007, published 2014):

What was measured:
[1] = system: healthy volunteers (men and women); assay: Behavioral effects by modified DABS-70 inventory after nasal exposure; type: in vivo, human; settings: 12 ng nasal
[2] = target: T1, human testicular 17α Hydroxylase/C17-20-Lyase (Homo sapiens, UniProt P05093); settings: Li et al. 1996; Brodie et al. U.S. Pat. No. 5,994,334; cited from earlier work
T1 sequence (P05093 1-508): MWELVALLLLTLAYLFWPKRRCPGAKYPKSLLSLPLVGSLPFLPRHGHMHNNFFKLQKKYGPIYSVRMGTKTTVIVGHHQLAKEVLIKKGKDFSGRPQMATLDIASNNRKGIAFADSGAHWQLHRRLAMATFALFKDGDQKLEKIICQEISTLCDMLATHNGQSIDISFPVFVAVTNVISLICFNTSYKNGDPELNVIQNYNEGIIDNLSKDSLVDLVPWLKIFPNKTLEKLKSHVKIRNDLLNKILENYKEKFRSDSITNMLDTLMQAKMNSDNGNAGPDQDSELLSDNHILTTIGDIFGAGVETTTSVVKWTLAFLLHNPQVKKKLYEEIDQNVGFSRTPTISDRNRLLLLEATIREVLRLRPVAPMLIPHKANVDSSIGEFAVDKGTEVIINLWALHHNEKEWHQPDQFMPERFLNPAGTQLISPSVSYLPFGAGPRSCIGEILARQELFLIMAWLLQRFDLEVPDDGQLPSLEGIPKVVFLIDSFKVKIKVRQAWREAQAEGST

[3] = system: healthy volunteers (men and women); assay: Behavioral effects by modified DABS-70 inventory after nasal exposure; type: in vivo, human; settings: for Sensuality cluster mean: modified DABS-70, items scored 0-4
Procedure: We assessed the resulting physiological responses and behavioral changes induced by nasal exposure to 12 ng pregna-5,20-dien-3β-ol in 76 volunteers (38 women and 38 men), age 18 to 46 (Table 1) using a placebo-controlled, single blind and crossover study design. The items of the modified DABS-70 were rearranged during consecutive administrations, in order to minimize the effect of learning.
Forty of the items on the standard DABS-70 questionnaire are descriptions of “ways people feel”, and subjects indicate whether they had experienced each emotion “never”, “rarely”, “sometimes”, “frequently”, or “always” in the last two weeks. The remaining 30 items on the standard DABS-70 questionnaire are personality characteristics for which subjects describe themselves as “not at all,” “a little bit,” “moderately” “quite a bit” or “extremely,” depending on the degree to which they feel each trait is typical of them. In the modified DABS-70 questionnaire, sixty-seven items were selected and assessed and during the testing the questions were randomized to minimize or prevent “learning” the questionnaire by the volunteers. This psychometric instrument was chosen because several items were of a sexual connotation and could be used to quantify the effects of pregna-5,20-dien-3β-ol on sexuality.
Subjects who participated were asked, as a baseline, to fill out the modified DABS-70 as to their personality characteristics and feelings as they currently perceived them. Each item was quantified ranging from an individual's perception of “not at all” (0) to “extremely” (4). At the beginning of the questionnaire was a statement that they might feel differently after the blind and randomized exposure to the contents of a perfumery grade smelling strip positioned on the upper lip. The baseline electrophysiological measurements were performed after the questionnaire was completed, and again 5 minutes before the second randomized exposure (FIG. 3). Twenty minutes after the first randomized exposure to control or pregna-5,20-dien-3β-ol and again 20 minutes after the second randomized exposure to control or pregna-5,20-dien-3β-ol (in both instances, 5 minutes after the second and fourth set of electrophysiological measurements), the modified DABS-70 was administered again (FIG. 4). This task took approximately 10 minutes to complete, and the order of the questions of each consecutive modified DABS-70 administered was rearranged in order to minimize the effect of learning during prior administration of the test.
Active substance (pregna-5,20-dien-3β-ol) and control were freshly prepared on 0.7 cm×10 cm perfumery grade smelling strips 24 hours before the experiment. A perfumery grade smelling strip was positioned on the upper lip of the subject for delivery of control or active substance to the nasal passages for a period of 20 minutes. Each breath carried vapors of pregna-5,20-dien-3β-ol or control (air) from the paper strip to the nasal passages.
Perfumery grade smelling strips containing either pregna-5,20-dien-3β-ol or control were prepared as follows: 100 μl of stock solution containing 100 mg pregna-5,20-dien-3β-ol/10 mL ethanol (95%) was added to a clean paper strip. Ethanol was allowed to evaporate overnight in a clean fume hood, and 1 mg of dry crystals of pregna-5,20-dien-3β-ol remained embedded in the dried perfumery grade smelling strip. Control was a perfumery grade smelling strip prepared following the same procedure but the solution was devoid of active substance.
The following assumptions were used to calculate the quantity of pregna-5,20-dien-3β-ol delivered to the nasal passages during a study session: a) the quantity of pregna-5,20-dien-3β-ol arriving to the nasal passages with each breath is ≈40 pg (determined as described below); b) the average respiratory rate at rest in men and women is ≈15 breaths per minute; and c) the subject was exposed to pregna-5,20-dien-3β-ol for 20 min during the entire study session. […]

[4] = MALE, 12 ng nasal, modified DABS-70 item
[5] = men (N = 38), 12 ng nasal over 20 min, modified DABS-70
[6] = men and women, regardless of gender, 12 ng nasal, p<0.0001
[7] = women (N = 38), 12 ng nasal over 20 min, modified DABS-70

C=C[C@H]1CC[C@H]2[C@@H]3CC=C4C[C@@H](O)CC[C@]4(C)[C@H]3CC[C@]12C [pregna-5,20-dien-3β-ol, Pregna-5,20-dien-3β-ol]
Negativity cluster, response versus control ([1]; listed as muricin aglycone): no effect on negativity | Social Warmth and Friendliness cluster, overall response versus control ([1]; regardless of gender, p<0.00001, listed as muricin aglycone): enhanced levels | Inhibition of human testicular 17α Hydroxylase/C17-20-Lyase [2]: little activity | ENERGETIC item, ACTIVE MEAN ([3]; FEMALE, 12 ng nasal, modified DABS-70 item): 2.07 | LOVING item, ACTIVE MEAN [3, 4]: 2.42 | WARM item, ACTIVE MEAN [3, 4]: 2.25 | Arousal/Excitement cluster mean [3, 5]: 2.006 | Negativity cluster mean [3, 5]: 0.246 | Personal Well-Being cluster mean [3, 5]: 2.607 | Social Warmth/Friendliness cluster mean [3, 5]: 2.147 | Sensuality cluster mean ([3]; men (N = 38), 12 ng nasal over 20 min): 1.286 | Social Warmth and Friendliness cluster, overall response versus control ([3]; men and women, regardless of gender, 12 ng nasal, p<0.00001): active>control | Arousal and Excitement cluster, overall response versus control [3, 6]: active>control | Sensuality cluster, overall response versus control [3, 6]: active>control | Negativity cluster, response versus control ([3]; men and women, 12 ng nasal): not associated with being exposed to active versus control treatment | Arousal/Excitement cluster mean [3, 7]: 1.857 | Negativity cluster mean [3, 7]: 0.238 | Social Warmth/Friendliness cluster mean [3, 7]: 1.92 | Sensuality cluster mean ([3]; women (N = 38), 12 ng nasal over 20 min): 1.446
